Entries after “also recorded” stand apart in the source; their conditions may differ.
What was measured:
reporter gene = test: Transcription assay of p65 activation domain mutants; type: cell-based; settings: for potency of p65 activation domain to induce the reporter gene, relative to wild type: mutated p65 activation domain
Source text: Thus, in one embodiment of this invention, mutations are introduced into the activation domain by standard techniques known in the art, such as site-directed PCR based mutagenesis. In this embodiment, one to five, in some cases one to three, alterations in peptide sequence can be introduced into the DNA coding for the activation domain. Each of these mutations either alone or in combination with one or more other mutations may be readily assayed for its ability to induce the transcription of either transiently transfected or stably integrated target reporter gene constructs. For instance, a construct encoding a fusion protein containing multiple copies of the modified sequence and a DNA binding domain can be introduced into cells and the activity of the encoded fusion protein measured in transcription assays (with a responsive reporter gene construct) and compared to analogous fusion proteins containing wild-type activation domain sequence or a different mutation of interest.
The foregoing is illustrated in the case of the p65 transcription activation domains. Constructs are prepared encoding fusion proteins containing one or more p65 transcription activation domains and a DNA binding domain. The p65 domains may be wild-type (as a control) or may contain any of a variety of alterations in peptide sequence. These mutations can generally be introduced into a variety of p65-derived transcription activation domains. For example, M1 mutations can be introduced into plasmids carrying p65 activation domain coding regions between amino acids 533 and 550, or 361 and 550, or 280 and 550.
Exemplary mutations for p65 transcription activation domains include those intended to increase the potency of the p65 activation domain (including the M1, M2, M6, M7 and M8 mutations) and those intended to decrease the potency (generally slightly) of the activation domain. […] Mutations of the M4 and M5 class change the conserved serine and proline residues between amino-acids 361 and 450. […] In GST pull down assays, the region of the M4 and M5 mutations interacts with TFIIA. […] Thus, mutations for the practitioner to bear in mind include, but are not limited to, the following: […]

[1] = test system: GAL4 responsive reporter gene; test: Rapamycin-induced expression of stably integrated GAL4-responsive SEAP reporter in transfected HT1080 B cells; type: cell-based

529-GDEDASSIADMDASALLSQI (SEQ ID NO:9) [F 533 and F 541 to alanine residues]
potency of p65 activation domain to induce the reporter gene, relative to wild type (reporter gene): half of wild type level

401-GALAQAGAGVG (SEQ ID NO:13) [M5]
expression of target genes when fused to other acidic type activation domains (reporter gene): synergistically
potency of p65 activation domain to induce the reporter gene, relative to wild type (reporter gene): very small effect

377-GALALGAGGQVL(SEQ ID NO:11) [M4]
expression of target genes when fused to other acidic type activation domains (reporter gene): synergistically
potency of p65 activation domain to induce the reporter gene, relative to wild type (reporter gene): very small effect

CO[C@H]1C[C@@H]2CC[C@@H](C)[C@@](O)(O2)C(=O)C(=O)N2CCCC[C@H]2C(=O)O[C@H]([C@H](C)C[C@@H]2CC[C@@H](O)[C@H](OC)C2)CC(=O)[C@H](C)/C=C(\C)[C@@H](O)[C@@H](OC)C(=O)[C@H](C)C[C@H](C)/C=C/C=C/C=C/1C [rapamycin, reference compound]
rapamycin concentration giving peak levels of reporter gene expression ([1]; GF4 with RS, RMTS or RMTSV): 10 nM

B1: RMTSV: VP16 activation domain fused to RMTS (FRB-minimal lac repressor tetramerization domain-p65) (protein)
chain: EMWHEGLEEASRLYFGERNVKGMFEVLEPLHAMMERGPQTLKETSFNQAYGRDLMEAQEWCRKYMKSGNVKDLTQAWDLYYHVFRRISKVKRKTTLAPNTQTASPRALADSLMQLARQVSRLESGQDEFPTMVFPSGQISQASALAPAPPQVLPQAPAPAPAPAMVSALAQAPAPVPVLAPGPPQAVAPPAPKPTQAGEGTLSEALLQLQFDDEDLGALLGNSTDPAVFTDLASVDNSEFQQLLNQGIPVAPHTTEPMLMEYPEAITRLVTGAQRPPDPAPAPLGAPGLPNGLLSGDEDFSSIADMDFSALLSQISSLGDELHLDGEDVAMAHADALDDFDLDMLGDGDSPGPGFTPHDSAPYGALDMADFEFEQMFTDALGIDEYGG
modifications: left off: small tags and cut ends
reporter gene expression at 1 nM rapamycin ([1]; GF4 DNA binding receptor, 1 nM rapamycin in the medium): induced the reporter gene expression robustly
reporter gene expression at the lowest level of activation domains expressed ([1]; fixed amount of GF4, 10 nM rapamycin): robust activation of reporter gene expression; also recorded: exceeded the level stimulated by the highest amount of RS fusion proteins
